Test results as given in patent US8609715B2, “Heteroarylcarboxylic acid ester derivative” (Ajinomoto Co., Inc., priority 2009, dated 2013).
Structures can show the parent of a compound that is named as a salt.

Columns and labels:
KK-A^y/JCL mice = test: Evaluation of antidiabetic action (blood glucose level); type: in vivo
Source text: Evaluation of Antidiabetic Action KK-A^y/JCL mice (male, 5- to 7-week-old, CLEA Japan, Inc.) known to spontaneously develop obese type 2 diabetes were purchased and, after one week of preliminary rearing period, grouped (6 per group) with the body weight and non-fasting blood glucose levels as indices. The animals were individually housed in a polycarbonate cage and allowed to drink water freely from a watering bottle. […] CRF-1 alone was given to the control group. After one week of dosing period, the blood (6 μL) was drawn from the tail vein of the animals, and the blood glucose level was measured by ACCU-CHEK Aviva (Roche Diagnostics K.K.). A significant difference from the control group was detected by Dunnett's multiple comparison test or Student's t-test (significance level less than 5%).

[1] = target: recombinant human enteropeptidase (Homo sapiens (Human), UniProt P98073); test: Measurement of enteropeptidase inhibitory activity; type: biochemical; conditions: Dixon plot
Description: Measurement of Enteropeptidase Inhibitory Activity
Using a 96 well plate (#3915, Costar), a test compound (25 μL), 400 mM Tris-HCl buffer (pH 8.0, 25 μL) and 0.5 mg/mL fluorescence enzyme substrate (Gly-Asp-Asp-Asp-Asp-Lys-β-Naphtylamide, 25 μL) were mixed, and recombinant human enteropeptidase (R&D Systems, Inc., 25 μL) was added. Using a fluorescence plate reader fmax (Molecular Devices, Inc.), the reaction rate was measured from the time-course changes at excitation wavelength 320 nm and fluorescence wavelength 405 nm. The Ki value was calculated from the concentration of the test compound, reciprocal of reaction rate, and Km value of the enzyme substrate, and by using Dixon plot.

[2] = dose 5.6 mg/100 g mixed in feed CRF-1, after one week of dosing

recombinant human enteropeptidase, sequence (P98073 whole entry): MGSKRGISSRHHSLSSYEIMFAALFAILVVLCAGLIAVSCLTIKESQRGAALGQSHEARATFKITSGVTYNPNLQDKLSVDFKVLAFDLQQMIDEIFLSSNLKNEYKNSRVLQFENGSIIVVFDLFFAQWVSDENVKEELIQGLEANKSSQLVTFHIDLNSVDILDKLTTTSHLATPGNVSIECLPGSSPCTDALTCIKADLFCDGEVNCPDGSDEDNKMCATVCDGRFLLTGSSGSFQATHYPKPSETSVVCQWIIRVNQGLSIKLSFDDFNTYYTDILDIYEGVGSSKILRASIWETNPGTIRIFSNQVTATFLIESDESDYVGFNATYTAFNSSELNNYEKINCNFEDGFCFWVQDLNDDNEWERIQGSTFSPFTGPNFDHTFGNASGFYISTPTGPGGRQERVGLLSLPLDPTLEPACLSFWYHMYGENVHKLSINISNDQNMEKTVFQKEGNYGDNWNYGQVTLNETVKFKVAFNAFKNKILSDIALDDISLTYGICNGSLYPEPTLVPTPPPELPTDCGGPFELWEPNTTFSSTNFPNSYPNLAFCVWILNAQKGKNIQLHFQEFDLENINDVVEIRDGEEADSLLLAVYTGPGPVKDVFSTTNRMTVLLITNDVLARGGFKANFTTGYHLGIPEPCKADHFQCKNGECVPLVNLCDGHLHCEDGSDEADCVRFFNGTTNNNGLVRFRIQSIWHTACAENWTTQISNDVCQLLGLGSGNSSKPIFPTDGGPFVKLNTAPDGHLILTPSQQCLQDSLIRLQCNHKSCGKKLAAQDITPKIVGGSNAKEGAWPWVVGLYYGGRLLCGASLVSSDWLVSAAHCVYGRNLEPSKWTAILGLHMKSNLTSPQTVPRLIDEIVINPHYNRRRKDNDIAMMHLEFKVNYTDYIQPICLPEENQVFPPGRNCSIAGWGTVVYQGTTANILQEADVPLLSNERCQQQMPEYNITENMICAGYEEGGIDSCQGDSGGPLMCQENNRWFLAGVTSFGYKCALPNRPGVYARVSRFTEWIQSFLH

Row | SMILES | Ki [1] [nM] | other results
1 | CC(Cc1ccc(C(=O)Oc2ccc(C(=N)N)cc2)o1)C(=O)N[C@H](CC(=O)O)C(=O)O.O=C(O)C(F)(F)F (stereo partly drawn) [A-28 hydrochloride] | – | Mean blood glucose level (KK-A^y/JCL mice; [2]): 219 mg/dL
2 | CC(Cc1ccc(C(=O)Oc2ccc(C(=N)N)cc2)s1)C(=O)N[C@@H](CC(=O)O)C(=O)O.O=C(O)C(F)(F)F (stereo partly drawn) [B-18 hydrochloride] | – | Mean blood glucose level (KK-A^y/JCL mice; [2]): 217 mg/dL; Mean blood glucose level (KK-A^y/JCL mice; dose 16.8 mg/100 g mixed in feed CRF-1, after one week of dosing): 138 mg/dL
3 | CC(Cc1ccc(C(=O)Oc2ccc(C(=N)N)cc2F)s1)C(=O)N[C@@H](CC(=O)O)C(=O)O.O=C(O)C(F)(F)F (stereo partly drawn) [B-20 hydrochloride] | – | Mean blood glucose level (KK-A^y/JCL mice; [2]): 197 mg/dL
4 | CC(Cc1ccc(C(=O)Oc2ccc(C(=N)N)cc2)s1)C(=O)N[C@H](CC(=O)O)C(=O)O.Cl (stereo partly drawn) [B-23 hydrochloride] | – | Mean blood glucose level (KK-A^y/JCL mice; [2]): 198 mg/dL
5 | N=C(N)c1ccc(OC(=O)c2ccc(CCC(=O)N[C@@H](CC(=O)O)C(=O)O)s2)c(F)c1.O=C(O)C(F)(F)F [B-32 hydrochloride] | – | Mean blood glucose level (KK-A^y/JCL mice; [2]): 249 mg/dL
6 | CC(CCC(=O)N[C@@H](CC(=O)O)C(=O)O)Cc1ccc(C(=O)Oc2ccc(C(=N)N)cc2)s1 (stereo partly drawn) [Compound B-50] | 0.89 | –
7 | CC(Cc1cc(C(=O)Oc2ccc(C(=N)N)cc2F)cs1)C(=O)O (stereo not drawn) [Compound B-51, 3-[4-(4-amidino-2-fluorophenoxycarbonyl)thiophen-2-yl]-2-methylpropanoic acid trifluoroacetic acid salt] | 0.72 | –
8 | CC(Cc1cc(C(=O)Oc2ccc(C(=N)N)cc2F)cs1)C(=O)N[C@@H](CC(=O)O)C(=O)O (stereo partly drawn) [Compound B-52] | 0.39 | –
9 | CC(Cc1cc(C(=O)Oc2ccc(C(=N)N)cc2)cs1)C(=O)N[C@@H](CC(=O)O)C(=O)O (stereo partly drawn) [Compound B-53] | 4.8 | –
10 | N=C(N)c1ccc(OC(=O)c2csc(CCC(=O)N[C@@H](CC(=O)O)C(=O)O)c2)c(F)c1 [Compound B-54, N-{3-[4-(4-amidino-2-fluorophenoxycarbonyl)thiophen-2-yl]propanoyl}-L-aspartic acid trifluoroacetic acid salt] | 0.58 | –
11 | CC(Cc1csc(C(=O)Oc2ccc(C(=N)N)cc2)c1)C(=O)N[C@@H](CC(=O)O)C(=O)O (stereo partly drawn) [Compound B-55] | 0.98 | –
12 | N=C(N)c1ccc(OC(=O)c2ccc(-c3ccc(C(=O)N[C@@H](CC(=O)O)C(=O)O)cc3)s2)cc1 [Compound B-56] | 9.5 | –
13 | N=C(N)c1ccc(OC(=O)c2ccc(-c3ccc(C(=O)N[C@@H](CC(=O)O)C(=O)O)cc3)s2)c(F)c1 [Compound B-57] | 3 | –
14 | N=C(N)c1ccc(OC(=O)c2ccc(-c3cccc(C(=O)N[C@@H](CC(=O)O)C(=O)O)c3)s2)cc1 [Compound B-58] | 9.8 | –
15 | N=C(N)c1ccc(OC(=O)c2ccc(-c3ccc(C(=O)N[C@@H](CC(=O)O)C(=O)O)s3)s2)cc1 [Compound B-59, N-{5-[5-(4-amidinophenoxycarbonyl)-thiophen-2-yl]thiophen-2-ylcarbonyl}-L-aspartic acid trifluoroacetic acid salt] | 8.2 | –
16 | N=C(N)c1ccc(OC(=O)c2ccc(CC(=O)N[C@@H](CC(=O)O)C(=O)O)s2)c(F)c1 [Compound B-60, N-[5-(4-amidino-2-fluorophenoxycarbonyl)thiophen-2-ylacetyl]-L-aspartic acid trifluoroacetic acid salt] | 0.64 | –
17 | Cc1cc(C(=O)Oc2ccc(C(=N)N)cc2F)sc1CCC(=O)N[C@@H](CC(=O)O)C(=O)O [Compound B-61, N-{3-[5-(4-amidino-2-fluorophenoxycarbonyl)-3-methylthiophen-2-yl]propanoyl}-L-aspartic acid trifluoroacetic acid salt] | 0.13 | –
18 | N=C(N)c1ccc(OC(=O)c2ccc(CCC(=O)N[C@@H](CCC(=O)O)C(=O)O)s2)c(F)c1 [Compound B-62] | 0.57 | –
19 | C=CCN(C(=O)CCc1ccc(C(=O)Oc2ccc(C(=N)N)cc2F)s1)[C@@H](CC(=O)O)C(=O)O [Compound B-63, N-{3-[5-(4-amidino-2-fluorophenoxycarbonyl)thiophen-2-yl]propanoyl}-N-allyl-L-aspartic acid trifluoroacetic acid salt] | 0.55 | –
20 | CC(C)(Cc1ccc(C(=O)Oc2ccc(C(=N)N)cc2F)s1)C(=O)N[C@@H](CC(=O)O)C(=O)O [Compound B-64, N-{3-[5-(4-amidino-2-fluorophenoxycarbonyl)thiophen-2-yl]-2,2-dimethylpropanoyl}-L-aspartic acid trifluoroacetic acid salt] | 0.14 | –
21 | N=C(N)c1ccc(OC(=O)c2ccc(CCC(=O)N[C@@H](Cc3ccc(O)cc3)C(=O)O)s2)c(F)c1 [Compound B-65] | 3.2 | –
22 | N=C(N)c1ccc(OC(=O)c2ccc(CCC(=O)N[C@@H](CO)C(=O)O)s2)c(F)c1 [Compound B-66] | 0.73 | –
23 | C/C(=C\c1nc(C(=O)Oc2ccc(C(=N)N)cc2)cs1)C(=O)N(CCCO)CC(=O)O [Compound C-2] | 5.67 | –
